Experimental data from patent US20220356174A1, “PYRIDIN-2-ONE COMPOUNDS USEFUL AS SMARCA2 ANTAGONISTS” (Epizyme, Inc., priority 2018, published 2022).
Read-outs that look alike come from different tables or passages of the source.

Legend:
[1] = biological target: T1, FL-SMARCA2 (full-length human SMARCA2 isoform 1) (Homo sapiens, UniProt P51531); assay: SMARCA2 ATPase activity assay (ADP-Glo, chicken mononucleosome substrate); type: biochemical; conditions: ATPase assay, enzyme 5 nM, ATP 250 uM, chicken mononucleosome 10 nM, 30 min preincubation
T1 construct: FLAG tag (YKDDDDK) (C); made in house; host or cells: Sf21 insect cells (baculovirus, pFastBacI)

A549 cells = assay: High-throughput proliferation (HTP) assay for A549 cells (CellTiter-Glo, 7 days); type: cell-based; conditions: Homo sapiens, 168 h, read-out: A549 SMARCA2 IC50
Description: Thawing vials: A549 cells (ATCC #CCL-185™) were thawed from a cryovial containing approximately 1.6×10^6 cells frozen in 70% F12K medium, 20% HI-FBS and 10% DMSO. Cells were thawed by submerging the bottom half of the vial in a 37° C. water bath and gently flicked until almost thawed. The cells were transferred into a 15 mL conical tube containing 9 mL of F12K medium+10% HI-FBS and then centrifuged at 200×g for 4 min before drawing off the media without disturbing the cell pellet in order to remove the DMSO. The cells were resuspended again in 15 mL of F12K fresh complete media+10% HI-FBS and grown up in a T75 flask at 37° C. with 5% CO2 Incubator. Viability was measured to obtain baseline.
Frozen stock vials preparation: The cell culture was transferred to a 50 mL conical tube, spun down to remove medium, and resuspended at 1-2×10^6 cells/mL in complete medium containing 10% DMSO. The culture was then stored for 24 hours at −80 degree C., (with the initial rate of freezing is −1 degree C. per minute in a freezing container), then transferred and stored in liquid nitrogen.
(§1) Routine subculture: Sub-confluent cultures (70-80%) were split every 4 days, seeding out at 1-2×10^6 cells/75 cm^2.
Day 0: Assay ready plates were prepared by dispensing 50 nL of compound or DMSO in the appropriate wells of 384-well white CulturPlates using Echo550. Using the Multiflo, A549 cells were plated at 50 μL/well in F12K complete media+10% HI-FBS+1% pen/strep at cell density determined [1,250 cells/mL (62.5 cells/well)] from growth curve.
Treated cells were incubated at 37° C., 5% CO2, relative humidity >90% for 7 days. CellTiter-Glo (CTG) ATP detection reagent was prepared according to manufacturer's specifications. Cell assay plates were removed from the incubator and brought to room temperature (RT). Using the MultiDrop liquid handler, 30 μL of CTG were added per well. Plates were placed on the multidrop dispenser shake for 5 seconds at room temperature (RT). Plates were incubated for 30 minutes in the dark at RT before measuring luminescence using the Envison2104.
Data analysis: Using the DMSO control wells as the 0% inhibition (high signal) control and the 10 μM Doxorubicin control wells as the 100% inhibition (low signal) control, percent inhibition EC50s (inflection point) and IC50 s were calculated for the compound dose responses.

H358 cells = assay: High-throughput proliferation (HTP) assay for H358 cells (CellTiter-Glo, 7 days); type: cell-based; conditions: Homo sapiens, NCI-H358, 168 h, read-out: H358 SMARCA2 IC50
Description: Thawing vials: H358 cells (ATCC #CRL-5807™) were thawed from a cryovial containing approximately 1.6×10^6 cells frozen in 70% RPMI 1640 medium, 20% HI-FBS and 10% DMSO. Cells were thawed by submerging the bottom half of the vial in a 37° C. water bath and gently flicked until almost thawed. The cells were removed and transferred into a 15 mL conical tube containing 9 mL RPMI 1640 medium+10% HI-FBS and then centrifuged 200×g for 4 min before drawing off the media without disturbing the cell pellet to remove the DMSO. The cells were resuspended again in 15 mL of RPMI 1640 fresh complete media+10% HI-FBS and grown up in a T75 flask at 37° C. with 5% CO2 Incubator. Viability was measured to obtain baseline.
Preparing frozen stock vials: Cell density was counted in a stock flask. The culture was transferred to a 50 mL conical tube and spun down to remove medium, and then resuspend at 1-2×10^6 cells/mL in complete medium containing 10% DMSO and transferred to a 1 mL per vial.
as §1
Day 0: Assay ready plates were prepared by dispensing 50 nL of compound stock or DMSO in the appropriate wells of 384-well white CulturPlates using Echo550. Using the Multiflo, H358 cells at 50 μL/well were plated in RPMI 1640 complete media+10% HI-FBS+1% pen/strep at cell density determined [20,000 cells/mL (1,000 cells/well)] from growth curve. Treated cells were inclubated at 37° C., 5% CO2, relative humidity >90% for 7 days. CellTiter-Glo (CTG) ATP detection reagent was prepared according to manufacturer's specifications. Cell assay plates were removed from incubator and bring to room temperature (RT).
Using the MultiDrop liquid handler, 30 μL of CTG were added per well. Plates were placed on the multidrop dispenser shake for 5 seconds at RT. Plates were incubated for 30 minutes in the dark at RT before measuring luminescence using the Envison2104.
Data analysis: Using the DMSO control wells as the 0% inhibition (high signal) control and the 10 uM Doxorubicin control wells as the 100% inhibition (low signal) control, percent inhibition EC50s (inflection point) and IC50s were calculated for the compound dose responses.

FL-SMARCA4 = FL-SMARCA4 (Homo sapiens, UniProt P51532); assay: SMARCA4 ATPase activity assay (ADP-Glo, chicken mononucleosome substrate)
[2] = Table 3d.1, read-out: FL-SMARCA2 IC>50
[3] = FL-SMARCA4 IC>50, Table 3c.2, ATPase assay, enzyme 5 nM, ATP 250 uM, chicken mononucleosome 10 nM, 30 min preincubation

Chain of FL-SMARCA4 (P51532 whole entry): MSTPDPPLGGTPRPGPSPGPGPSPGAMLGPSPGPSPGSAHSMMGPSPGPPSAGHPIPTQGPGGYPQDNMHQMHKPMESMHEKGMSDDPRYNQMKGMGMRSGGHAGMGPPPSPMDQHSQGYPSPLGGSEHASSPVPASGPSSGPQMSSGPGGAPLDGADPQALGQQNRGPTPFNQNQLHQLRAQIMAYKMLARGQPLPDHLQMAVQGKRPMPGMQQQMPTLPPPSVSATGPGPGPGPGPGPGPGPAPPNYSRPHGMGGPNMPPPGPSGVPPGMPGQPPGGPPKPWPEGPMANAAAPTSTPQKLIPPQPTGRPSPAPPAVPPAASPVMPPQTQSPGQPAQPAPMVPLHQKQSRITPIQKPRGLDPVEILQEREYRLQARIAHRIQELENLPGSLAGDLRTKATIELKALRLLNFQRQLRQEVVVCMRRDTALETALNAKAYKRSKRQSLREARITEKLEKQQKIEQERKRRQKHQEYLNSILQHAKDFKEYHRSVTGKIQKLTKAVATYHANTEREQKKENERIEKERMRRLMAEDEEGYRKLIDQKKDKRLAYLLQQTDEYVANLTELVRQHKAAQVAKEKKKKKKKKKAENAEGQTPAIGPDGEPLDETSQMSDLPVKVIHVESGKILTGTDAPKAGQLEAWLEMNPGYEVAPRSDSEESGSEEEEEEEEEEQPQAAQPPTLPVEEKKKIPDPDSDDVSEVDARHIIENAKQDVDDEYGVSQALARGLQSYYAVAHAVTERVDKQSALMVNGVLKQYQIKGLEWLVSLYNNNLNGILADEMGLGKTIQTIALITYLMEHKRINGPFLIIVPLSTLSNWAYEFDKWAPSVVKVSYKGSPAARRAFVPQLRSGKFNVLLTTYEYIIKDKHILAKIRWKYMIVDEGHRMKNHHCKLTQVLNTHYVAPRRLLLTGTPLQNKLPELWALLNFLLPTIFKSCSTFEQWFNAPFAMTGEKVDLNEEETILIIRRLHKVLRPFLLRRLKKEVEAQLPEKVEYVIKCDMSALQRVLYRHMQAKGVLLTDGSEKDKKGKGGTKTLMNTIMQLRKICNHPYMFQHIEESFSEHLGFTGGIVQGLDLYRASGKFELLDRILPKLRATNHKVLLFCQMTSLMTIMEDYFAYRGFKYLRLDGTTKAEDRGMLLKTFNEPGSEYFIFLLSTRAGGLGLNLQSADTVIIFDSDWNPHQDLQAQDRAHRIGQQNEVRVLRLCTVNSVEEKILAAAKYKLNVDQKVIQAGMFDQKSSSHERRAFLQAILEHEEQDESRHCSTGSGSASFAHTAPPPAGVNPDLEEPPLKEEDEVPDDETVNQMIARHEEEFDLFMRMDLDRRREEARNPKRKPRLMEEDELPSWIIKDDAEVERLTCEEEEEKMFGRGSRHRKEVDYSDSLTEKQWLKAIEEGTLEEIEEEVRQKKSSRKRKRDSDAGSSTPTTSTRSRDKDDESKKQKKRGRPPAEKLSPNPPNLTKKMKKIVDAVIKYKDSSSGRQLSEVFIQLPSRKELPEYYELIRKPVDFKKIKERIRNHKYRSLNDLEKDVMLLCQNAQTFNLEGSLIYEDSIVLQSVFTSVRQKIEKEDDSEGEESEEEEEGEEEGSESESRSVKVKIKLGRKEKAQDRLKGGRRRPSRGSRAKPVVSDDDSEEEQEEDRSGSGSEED
T1 sequence (P51531 with tags, fused parts or gaps): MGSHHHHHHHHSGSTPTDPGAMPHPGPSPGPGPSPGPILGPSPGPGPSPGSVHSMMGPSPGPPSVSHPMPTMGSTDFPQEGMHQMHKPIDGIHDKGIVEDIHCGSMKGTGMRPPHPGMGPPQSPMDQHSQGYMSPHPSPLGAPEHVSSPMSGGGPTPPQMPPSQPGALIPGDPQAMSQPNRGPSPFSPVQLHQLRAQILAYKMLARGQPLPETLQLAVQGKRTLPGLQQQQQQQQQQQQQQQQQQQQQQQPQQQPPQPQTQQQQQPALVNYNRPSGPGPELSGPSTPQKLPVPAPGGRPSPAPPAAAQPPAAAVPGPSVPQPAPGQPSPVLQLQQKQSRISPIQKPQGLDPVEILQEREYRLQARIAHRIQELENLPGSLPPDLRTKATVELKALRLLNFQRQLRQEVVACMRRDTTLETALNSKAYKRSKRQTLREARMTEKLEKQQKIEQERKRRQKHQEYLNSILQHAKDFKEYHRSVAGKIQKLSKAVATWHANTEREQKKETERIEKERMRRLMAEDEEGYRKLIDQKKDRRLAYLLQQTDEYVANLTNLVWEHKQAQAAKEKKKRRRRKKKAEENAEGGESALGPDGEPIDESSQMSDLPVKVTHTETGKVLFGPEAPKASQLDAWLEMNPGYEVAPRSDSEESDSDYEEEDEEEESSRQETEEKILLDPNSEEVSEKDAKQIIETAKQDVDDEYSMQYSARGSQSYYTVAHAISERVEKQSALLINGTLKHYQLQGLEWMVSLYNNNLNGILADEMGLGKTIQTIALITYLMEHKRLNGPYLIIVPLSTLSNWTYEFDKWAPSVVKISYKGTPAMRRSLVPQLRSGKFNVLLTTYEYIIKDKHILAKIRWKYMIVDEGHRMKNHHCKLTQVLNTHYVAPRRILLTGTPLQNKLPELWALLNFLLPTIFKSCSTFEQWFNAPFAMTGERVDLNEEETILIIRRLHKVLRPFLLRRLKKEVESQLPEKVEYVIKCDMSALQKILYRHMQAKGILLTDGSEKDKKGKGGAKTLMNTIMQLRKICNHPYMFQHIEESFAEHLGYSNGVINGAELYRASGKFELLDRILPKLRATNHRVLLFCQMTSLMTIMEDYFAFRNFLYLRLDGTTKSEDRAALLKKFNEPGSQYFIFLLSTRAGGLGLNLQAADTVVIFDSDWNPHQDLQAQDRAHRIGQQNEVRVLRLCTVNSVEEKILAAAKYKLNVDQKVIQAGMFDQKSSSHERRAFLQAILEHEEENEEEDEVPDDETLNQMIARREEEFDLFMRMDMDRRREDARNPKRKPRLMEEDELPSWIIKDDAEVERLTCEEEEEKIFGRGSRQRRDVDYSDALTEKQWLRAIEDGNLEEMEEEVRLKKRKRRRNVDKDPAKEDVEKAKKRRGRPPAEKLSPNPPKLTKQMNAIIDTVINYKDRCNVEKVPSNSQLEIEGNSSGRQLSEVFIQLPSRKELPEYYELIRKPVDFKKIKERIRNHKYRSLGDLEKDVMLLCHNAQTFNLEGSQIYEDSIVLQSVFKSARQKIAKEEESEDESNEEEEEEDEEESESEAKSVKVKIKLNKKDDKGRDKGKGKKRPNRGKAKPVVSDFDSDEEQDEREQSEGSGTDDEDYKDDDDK

SMILES | IC50 [1, 2] [nM] | IC50 (A549 cells) [nM] | IC50 (H358 cells) [nM] | IC50 (FL-SMARCA4; FL-SMARCA4 IC50) [nM] | IC50 ([1]; Table 3c.1) [nM] | IC50 (FL-SMARCA4; [3]) [nM]
O=C(Nc1cc(F)c(=O)n(CC(F)F)c1)c1cc(C#Cc2cnc3n2CCOC3)c(Cl)s1 [Compound 95d] | 334 | > 10000 | > 10000 | 1060 |  | 
N#Cc1cc(C(=O)Nc2cc(C(N)=O)c(=O)n(CC(F)F)c2)sc1C(F)(F)F [Compound 137d] | > 50000 | > 10000 | > 10000 | > 50000 |  | 
O=C(Nc1cc(F)c(=O)n(CC(F)F)c1)c1cc(C#Cc2ccc3nncn3c2)c(Cl)s1 [Compound 91d] | 22.9 | > 10000 | > 10000 | 69.8 |  | 
O=C(Nc1cc(F)c(=O)n(CC(F)F)c1)c1cc(C#CC2CCS(=O)(=O)CC2)c(Cl)s1 [Compound 99d] | 195 | 6680 | > 10000 | 244 |  | 
O=C(Nc1cc(F)c(=O)n(CC(F)F)c1)c1cc(C#Cc2cocn2)c(Cl)s1 [Compound 136c] |  | 734 | > 10000 |  | 26.3 | 117
O=C1Cc2c(C#Cc3cc(C(=O)Nc4cc(F)c(=O)n(CC(F)F)c4)sc3Cl)cccc2N1 [Compound 142c] |  | 3210 | 4650 |  | 49.9 | 119
O=C1CCC(C#Cc2cc(C(=O)Nc3cc(F)c(=O)n(CC(F)F)c3)sc2Cl)CN1 (centres unmarked) [Compound 153c] |  | > 10000 | 6950 |  | 211 | 439
CN1CC(C#Cc2cc(C(=O)Nc3cc(F)c(=O)n(CC(F)F)c3)sc2Cl)CC1=O (centres unmarked) [Compound 113d] | 967 | > 10000 | > 10000 | 2880 |  | 
N#Cc1cc(C(=O)Nc2cc(F)c(=O)n(CC(F)F)c2)sc1C1CC1 [Compound 87d] | 978 | > 10000 | > 10000 | 4990 |  | 
CC(N)C#Cc1sc(C(=O)Nc2cc(F)c(=O)n(CC(F)F)c2)cc1Cl (centres unmarked) [Compound 131d] | > 50000 | > 10000 | > 10000 | > 50000 |  | 
O=C(Nc1cc(F)c(=O)n(CC(F)F)c1)c1cc(C#Cc2csc(C(F)(F)F)n2)c(Cl)s1 [Compound 126c] |  | 4010 | > 10000 |  | 235 | 957
N#Cc1cc(C(=O)Nc2cc(F)c(=O)n(CC3(F)CC3)c2)sc1C(F)(F)F [Compound 85d] | 104 | 4170 | > 10000 | 596 |  | 
CNC(=O)c1cncc(C#Cc2cc(C(=O)Nc3cc(F)c(=O)n(CC(F)F)c3)sc2Cl)c1 [Compound 129c] |  | > 10000 | > 10000 |  | 51.3 | 143
O=C(Nc1cc(F)c(=O)n(CC(F)F)c1)c1cc(C#CC2CCn3cnnc3C2)c(Cl)s1 (centres unmarked) [Compound 119d] | 961 | > 10000 | > 10000 | 2220 |  | 
N#Cc1cncc(C#Cc2cc(C(=O)Nc3cc(F)c(=O)n(CC(F)F)c3)sc2Cl)c1 [Compound 64d] | 165 | 3810 | > 10000 | 498 |  | 
CNS(=O)(=O)c1cccc(C#Cc2cc(C(=O)Nc3cc(F)c(=O)n(CC(F)F)c3)sc2Cl)c1 [Compound 99c] |  | 1700 | > 10000 |  | 40.6 | 80.1

SMILES | IC50 [1, 2] [nM] | IC50 (A549 cells) [nM] | IC50 (H358 cells) [nM] | IC50 (FL-SMARCA4; FL-SMARCA4 IC50) [nM] | IC50 ([1]; Table 3c.1) [nM] | IC50 (FL-SMARCA4; [3]) [nM]
CN1CCCC(C#Cc2sc(C(=O)Nc3cc(F)c(=O)n(CC(F)F)c3)cc2Cl)C1 (centres unmarked) [Compound 132d] | > 50000 | 7980 | > 10000 | > 50000 |  | 
Cc1cc(C(=O)Nc2cc(F)c(=O)n(CC(F)F)c2)sc1C(F)(F)F [Compound 80d] | 224 | > 10000 | > 10000 | 1140 |  | 
O=C(Nc1cc(F)c(=O)n(CC(F)F)c1)c1cc(C#Cc2cn[nH]c2)c(Cl)s1 [Compound 83c] |  | 3470 | > 10000 |  | 19.4 | 62.9
CN(C)Cc1cc(C#Cc2cc(C(=O)Nc3cc(F)c(=O)n(CC(F)F)c3)sc2Cl)n(C)n1 [Compound 149c] |  | > 10000 | > 10000 |  | 8030 | 16100
O=C(Nc1cc(F)c(=O)n(CC(F)F)c1)c1cc(C#Cc2ccc3ccnn3c2)c(Cl)s1 [Compound 122d] | 253 | 8440 | > 10000 | 835 |  | 
N#Cc1cc(C(=O)Nc2cc(F)c(=O)n(CC(F)F)c2)sc1C(F)F [Compound 69d] | 26.6 | 2040 | > 10000 | 120 |  | 
CC(N)C#Cc1cc(C(=O)Nc2cc(F)c(=O)n(CC(F)F)c2)sc1Cl (centres unmarked) [Compound 138d] | 1680 | > 10000 | > 10000 | 4610 |  | 
O=C(Nc1cc(F)c(=O)n(CC(F)F)c1)c1cc(C#Cc2ccc3c(c2)C(=O)NC3)c(Cl)s1 [Compound 145c] |  | > 10000 | > 10000 |  | 81.7 | 208
O=C(Nc1cc(F)c(=O)n(CC(F)F)c1)c1cc(C#Cc2ccccc2)c(Cl)s1 [Compound 41c] |  | 4270 | > 10000 |  | 82.7 | 250
O=C(Nc1cc(F)c(=O)n(CC(F)F)c1)c1cc(OC(F)(F)F)c(C(F)(F)F)s1 [Compound 89d] | 187 | 5620 | > 10000 | 2070 |  | 
N#Cc1cc(C(=O)Nc2cc(C(F)F)c(=O)n(CC(F)F)c2)sc1C(F)(F)F [Compound 76d] | 1310 | > 10000 | > 10000 | 10200 |  | 
CN(C)C(=O)c1cccc(C#Cc2cc(C(=O)Nc3cc(F)c(=O)n(CC(F)F)c3)sc2Cl)c1 [Compound 74c] |  | 3930 | > 10000 |  | 67.5 | 245
O=C(Nc1cc(F)c(=O)n(CC(F)F)c1)c1cc(C#Cc2nncs2)c(Cl)s1 [Compound 130d] | 30.9 | 3370 | 6750 | 132 |  | 
O=C(Nc1cc(Cl)c(=O)n(CC(F)F)c1)c1cc(Cl)c(C(F)(F)F)s1 [Compound 79d] | 43.2 | 3650 | > 10000 |  |  | 
O=C(Nc1cc(F)c(=O)n(CC(F)F)c1)c1cc(C#Cc2ccnc(-c3ncco3)c2)c(Cl)s1 [Compound 150c] |  | 932 | > 10000 |  |  | 14.5
